Assay results from US10232023B2, “Methods for treatment of and prophylaxis against inflammatory disorders” (THE UNIVERSITY OF UTAH RESEARCH FOUNDATION, priority 2013, dated 2019).

Assays:
[1] = test system: human platelets; experiment: Platelet activation (P-selectin expression); assay type: cell-based; settings: given alone or following thrombin stimulation (0.1 IU/mL)
Description: Using protocols modified from van Velzen, et al., Thromb Res, 2012, 130: 92-98, human platelets (1×10^8 cells/mL) were incubated with CRISPP or SCR (0.1-10 ng/ml) for 1 hour followed by stimulation with thrombin (0.1 IU/mL) or control M-199 media for 15 minutes. The cells were prepared for FACS analysis with the following primary, monoclonal antibodies for 20 minutes: PE-conjugated CD41a (platelet-specific marker) and FITC-conjugated CD62P (P-selectin). Isotype and fluorochrome matched control antibodies were used. After incubation at room temperature in the dark, the cells were lysed with FACS lysis buffer and analyzed by flow cytometry (BECTON-DICKINSON FACSCAN, CELLQUEST software).

[2] = test system: PMNs isolated from healthy adult donors; experiment: PMN phagocytosis of E. coli BIOPARTICLES; assay type: cell-based, human; settings: 1 nM, 60 minutes pre-incubation, 4 hours
Description: PMNs were isolated from blood of healthy adult donors and resuspended in M-199 at a concentration of 2×10^6 cells/mL. Leukocytes were pre-incubated for 60 minutes under standard conditions with cytochalasin B and […] (1 nM), or SCR (1 nM). Following pre-incubation, PMNs were incubated with 6×10^6 E. coli BIOPARTICLES (E-13231, MOLECULAR PROBES) on a rotator for 4 hours under standard conditions. The PMNs were then washed and resuspended in the starting volume in M-199 before being spun down onto glass coverslips and fixed with 2% paraformaldehyde for 10 minutes and permeabilized with 0.1% Triton-X-100 for 10 minutes. Leukocytes were stained with WGA 555 (INVITROGEN) and TO[…] (MOLECULAR PROBES) and randomly selected high power visual field images were captured using confocal microscopy. IMAGE-J software (NIH) was used to determine the percentage of PMNs that were positive for fluorescently labeled E. coli BIOPARTICLES detected at 488 nm.

[3] = test system: PMNs isolated from healthy adult donors; experiment: PMN chemotaxis, modified Boyden Chamber assay; assay type: cell-based, human; settings: 1 nM, one hour pre-incubation; IL-8 2 ng/mL
Description: Chemotaxis by PMNs isolated from healthy adult donors was assessed using a modified Boyden Chamber assay±a one hour pre-incubation […] (1 nM), or SCR (1 nM). Recombinant human IL-8 (2 ng/mL) was used as the chemoattractant. Chemotaxis through a 5 micron filter was determined by counting PMNs in 10 randomly selected high-power fields as previously described in Hill et al., Lancet, 1974, 2: 617-619. In separate experiments, […], or SCR (all at 1 nM) were evaluated for chemoattractant activity using the same system.

[4] = test system: LPS-stimulated human PMNs; experiment: Reactive oxygen species generation, dihydrorhodamine assay; assay type: cell-based; settings: 1 nM, 1 hour pre-incubation; LPS 100 ng/mL
Description: Human PMNs isolated from healthy adult whole blood were resuspended to a concentration of 2×10^6 cells/mL in M-199 media and pre-incubated±[…] (1 nM) or SCR (1 nM) peptide for 1 hour under standard conditions. The PMNs were then stimulated with LPS (100 ng/mL) for 1 hour, washed, and resuspended with a dihydrorhodamine (7.25 mM; D-632, MOLECULAR PROBES) and catalase (1000 Units/mL; C-40, SIGMA) mixture and incubated at 37° C. for 10 minutes. After incubation, samples were placed at 4° C. and analyzed for ROS-dependent fluorescence using a BECTON-DICKINSON FACSCAN device equipped with CELLQUEST software.

[5] = test system: C57BL6 mice, intraperitoneal injection of LPS; experiment: Survival after intraperitoneal LPS; assay type: in vivo, mouse; settings: LPS 20 mg/kg IP; 10 mcg/kg/dose IP, 1 hour prior and 6 hours after; vs LPS+scrambled peptide, p=0.02
Description: FIG. 10A is a graph tracking survival of C57BL6 mice in various treatment arms following intraperitoneal injection of LPS (20 mg/kg). CRISPP-treated mice (10 mcg/kg/dose) received 2 doses intraperitoneally; one given 1 hour prior to infection and one dose given 6 hours after infection. The same dose, delivery route, and schedule were followed for the scrambled peptide control mice. Six mice were assessed in both groups.
Survival of outbred Swiss mice was tracked in various treatment arms following intraperitoneal injection of either LPS (20 mg/kg) or E. coli (4×10^7 bacteria), as shown in FIGS. 10A and 10B. […] Six mice were assessed in both groups: LPS+CRISPP and LPS+scrambled control peptide. […] Ten mice were assessed in each group: no treatment, E. coli+CRISPP, and E. coli+scrambled control peptide. […] Referring to FIG. 11, CRISPP was also evaluated in a murine model of polymicrobial infection caused by cecal ligation and puncture (CL/P). […] Ten mice were assessed in each of the CL/P groups. […]
Animals were treated with CRISPP (10 mg/kg), nNIF (10 mg/kg), or SCR (10 mg/kg) by i.p. injection 1 hour prior to and 6 hours after infection (E. coli, 4.5×10^7 cfu/mouse, i.p. injection) or stimulation (LPS, 25 mg/kg, i.p. injection). […] Survival was assessed over 6 days at 6 hour to 12 hour intervals.

Cancer-Associated SCM-Recognition, Immune Defense Suppression, and Serine Protease Protection Peptide [CRISPP, nNIF-related peptide (nNRP)]
Platelet p-selectin expression [1]: did not alter | PMN phagocytosis [2]: did not significantly inhibit | PMN chemotaxis [3]: did not significantly inhibit | Reactive oxygen species generation [4]: did not significantly inhibit | Survival [5]: statistically greater
